Consider 1 compound from publication PMC5446859 (2017).

This assay has as its system DNAzyme-aptamer (DNA, aptamer) TGGGTAGGGCGGGTTGGGAAAGTTGGGCACGTGTTGTCTCTCTGTGTCTCGTGCCCTTCGCTAGGCCCAC
Kind of assay: peroxidase activity (TMB), blocker hybridization. The conditions noted are these: 120 mM NaCl, 5 mM KCl, 2.5 mM MgCl2; 10 mM Tris-HCl pH 8; hemin prevents hybridization of blocker; qualitative, indirect.

As to `C=CC1=C(C)C2=Cc3c(C=C)c(C)c4[n]3[Fe]([Cl])[n]3c(c(C)c(CCC(=O)O)c3=CC3=NC(=C4)C(C)=C3CCC(=O)O)=CC1=N2`, the binding result is listed as “yes”.
